From US20260347310A1, “PHENALKYLAMINES AND METHODS OF MAKING AND USING THE SAME” (GILGAMESH PHARMACEUTICALS, INC., priority 2022, published 2026)

How the values were obtained:
5-HT2A receptor = 5-HT2A receptor (Homo sapiens, UniProt P28223); experiment: PathHunter beta-arrestin recruitment functional agonist assay at 5-HT2A; format: cell-based; parameters: expressed in transfected cells; host or cells: PathHunter cells (Eurofins DiscoverX); settings: for agonist activity at 5-HT2A in arrestin assay (in words): beta-arrestin recruitment; for Emax: read-out: 5-HT2A Arrestin % Act @ Max Dose
Description: Disclosed compounds were tested for agonist activity at the 5-HT2A receptor using a beta-arrestin (arrestin) recruitment functional assay, with the results summarized in Table 10.
Arrestin Functional Assay at 5-HT2A. Recruitment of beta-arrestin was determined using a PathHunter assay at Eurofins DiscoverX (Fremont, CA) according to their standard protocols. PathHunter GPCR beta-arrestin assays take advantage of DiscoverX's proprietary Enzyme Fragment Complementation technology. The GPCR is fused in frame with a small enzyme donor fragment ProLink™ (PK) and co-expressed in cells stably expressing a fusion protein of beta-arrestin and the larger, N-terminal deletion mutant of beta-galactosidase. Activation of the GPCR (5-HT2A receptor in this case) stimulates binding of beta-arrestin to the PK-tagged GPCR and forces complementation of the two enzyme fragments, resulting in the formation of an active beta-galactosidase enzyme. This interaction leads to an increase in enzyme activity that can be measured using chemiluminescent PathHunter Detection Reagents. Briefly, PathHunter cells expressing 5-HT2A receptors were seeded in a volume of 20 μL into 384-well plates and incubated at 37° C. for the appropriate time prior to testing. For agonist activity determination, cells were incubated with 5 μL of 5× sample in assay buffer and incubated at 37° C. for 90-180 min with a vehicle concentration of 1%. Plates were then imaged on a microplate reader and the agonist activity was calculated using the following formula: % Activity=100%×(mean RLU of test sample−mean RLU of vehicle control)/(mean MAX control ligand−mean RLU of vehicle control), where RLU=relative light units.

5-HT2C receptor = target: T1, 5-HT2C receptor (Homo sapiens, UniProt P28335); experiment: FLIPR Ca2+ flux functional agonist assay at 5-HT2C; format: cell-based; parameters: expressed in transfected cells; settings: for Emax: agonist activity, FLIPR Ca2+ flux, stably transfected cells, at max dose, read-out: 5-HT2C % Act @ Max Dose
T1 sequence (P28335 33-458): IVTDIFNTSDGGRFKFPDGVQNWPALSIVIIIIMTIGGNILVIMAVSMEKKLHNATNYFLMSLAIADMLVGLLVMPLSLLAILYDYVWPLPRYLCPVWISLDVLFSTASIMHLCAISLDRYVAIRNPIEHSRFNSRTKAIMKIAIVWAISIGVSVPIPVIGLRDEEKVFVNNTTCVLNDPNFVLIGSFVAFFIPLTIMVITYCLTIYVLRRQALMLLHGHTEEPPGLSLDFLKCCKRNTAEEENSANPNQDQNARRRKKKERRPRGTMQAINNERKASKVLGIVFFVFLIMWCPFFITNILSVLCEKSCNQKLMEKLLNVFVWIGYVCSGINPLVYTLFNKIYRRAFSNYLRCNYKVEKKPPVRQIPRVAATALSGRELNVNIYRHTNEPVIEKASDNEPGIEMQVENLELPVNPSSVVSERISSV
Description: Disclosed compounds were tested for agonist activity at several serotonin receptor subtypes (5-HT2A, […], and 5-HT2C) using Ca^2+ flux functional assays, with the results summarized in Table 9.
Test Compounds. Compounds were prepared as described above.
Functional Assays at 5-HT2C. Agonist activity at 5-HT2C was determined using a FLIPR Ca^2+ flux assay at Eurofins DiscoverX (Fremont, CA) according to their standard protocols. Briefly, stably transfected cells expressing the human 5-HT2C receptor were grown and plated in a 384-well plate and incubated at 37° C. and 5% CO2 overnight. Assays were performed in 1× Dye Loading Buffer consisting of 1× Dye, 1× Additive A, and 2.5 mM Probenecid in HBSS/20 mM Hepes. Probenecid was prepared fresh. Cells were loaded with dye prior to testing and incubated at 37° C. for 30-60 minutes. After dye loading, cells were removed from the incubator and 10 μL HBSS/20 mM Hepes was added. 3× vehicle was included in the assay buffer. Cells were incubated for 30 mins at room temperature in the dark to equilibrate plate temperature. Intermediate dilution of sample stocks was performed to generate 4× sample in assay buffer. Compound agonist activity was measured on a FLIPR Tetra (MDS). Calcium mobilization was monitored for 2 minutes and 10 μL 4× sample in HBSS/20 mM Hepes was added to the cells 5 seconds into the assay.

5-HT2B receptor = target: T2, 5-HT2B receptor (Homo sapiens, UniProt P41595); experiment: Radioligand binding at 5-HT2B ([3H]LSD)
T2 construct: expressed in transfected cells; host or cells: HEK293
Description: The binding affinities of disclosed compounds at the ketanserin binding site of the 5-HT2A receptor, the LSD binding site of the 5-HT2B receptor, and the mesulergine binding site of the 5-HT2C receptor were determined in radioligand binding experiments.
Method. The affinity of the test compounds for 5-HT2A, 5-HT2B, and 5-HT2C receptors was determined in radioligand binding experiments with [^3H]ketanserin, [^3H]LSD, and [^3H]mesulergine, respectively, by WuXi AppTec (Hong Kong) Limited, using methods adapted from the literature and under conditions described in Table 7.

Sequence of 5-HT2A receptor (P28223 whole entry): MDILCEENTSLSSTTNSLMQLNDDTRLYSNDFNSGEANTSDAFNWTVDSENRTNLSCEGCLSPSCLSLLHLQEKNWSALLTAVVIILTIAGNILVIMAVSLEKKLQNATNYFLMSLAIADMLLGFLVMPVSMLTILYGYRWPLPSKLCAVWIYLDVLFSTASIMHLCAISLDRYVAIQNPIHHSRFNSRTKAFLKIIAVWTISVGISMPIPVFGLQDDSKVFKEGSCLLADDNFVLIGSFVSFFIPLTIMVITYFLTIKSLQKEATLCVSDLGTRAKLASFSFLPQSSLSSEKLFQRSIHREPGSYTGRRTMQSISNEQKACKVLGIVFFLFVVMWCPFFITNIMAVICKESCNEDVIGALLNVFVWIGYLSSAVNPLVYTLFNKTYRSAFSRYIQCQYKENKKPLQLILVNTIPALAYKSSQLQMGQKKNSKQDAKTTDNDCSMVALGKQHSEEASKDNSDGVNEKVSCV
T2 sequence (P41595 whole entry): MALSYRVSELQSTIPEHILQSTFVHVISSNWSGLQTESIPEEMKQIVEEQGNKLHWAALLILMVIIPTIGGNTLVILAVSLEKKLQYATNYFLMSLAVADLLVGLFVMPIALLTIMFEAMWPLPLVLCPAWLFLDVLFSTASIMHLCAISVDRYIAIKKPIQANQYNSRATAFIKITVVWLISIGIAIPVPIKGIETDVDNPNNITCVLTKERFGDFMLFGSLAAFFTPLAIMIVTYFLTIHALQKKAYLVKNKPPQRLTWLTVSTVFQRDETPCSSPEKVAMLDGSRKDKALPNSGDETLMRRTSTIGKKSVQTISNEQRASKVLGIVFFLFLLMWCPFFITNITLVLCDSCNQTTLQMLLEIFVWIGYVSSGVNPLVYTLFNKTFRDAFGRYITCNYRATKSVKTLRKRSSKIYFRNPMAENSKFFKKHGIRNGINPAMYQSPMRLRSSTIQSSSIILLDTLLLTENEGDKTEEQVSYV

Row | Structure (SMILES) | EC50 (5-HT2A receptor) | agonist activity at 5-HT2A in arrestin assay (in words) (5-HT2A receptor) | Emax (5-HT2A receptor) | EC50 (5-HT2C receptor) | fold more potent at 5-HT2C (5-HT2C receptor; 1R compared to 1S, Ca2+ flux) | Emax (5-HT2C receptor) | Ki (5-HT2B receptor) | fold lower affinity at 5-HT2B (5-HT2B receptor; 1R compared to 1S)
1 | CCC(N)Cc1cc(OC)c(CCCCCC(F)(F)F)cc1OC (racemic) [Compound 2a, 1-(2,5-dimethoxy-4-(6,6,6-trifluorohexyl)phenyl)butan-2-amine] | 33.2 nM | higher efficacy in this assay than in the 5-HT2A FLIPR assay | 56.8% |  |  |  |  | 
2 | CCCCCCc1cc(OC)c(C[C@H](N)CC)cc1OC [Compound 1R, (R)-1-(4-hexyl-2,5-dimethoxyphenyl)butan-2-amine] | 6.23 nM | substantially more efficacious compared to 1S | 82.5% | 1190 nM | ~ 3 fold | 104% | 111 nM | ~ 36 fold
3 | CCCCCCc1cc(OC)c(C[C@@H](N)CC)cc1OC [Compound 1S, (S)-1-(4-hexyl-2,5-dimethoxyphenyl)butan-2-amine] | 7.85 nM |  | 58.5% | 3130 nM |  | 106% | 3.1 nM | 
